# Results as given in patent publication US20160000702A1, “PHARMACEUTICAL COMPOSITION FOR ENHANCED TRANSMUCOSAL ADMINSTRATION OF BENZODIAZEPINES” (EASTGATE PHARMACEUTICALS INC., priority 2013, published 2016).
# Legend:
# [1] = intranasal, human patients, anti-seizure activity; cited from earlier work
# PTZ induced seizures = assay: Timed intravenous PTZ infusion test (ivPTZ); format: in vivo, mice; conditions: Lorazepam 2.5 mg/kg (Graph 5)
# Excerpt: For investigation of anti-seizure activity of invented formulations, a timed intravenous PTZ infusion test was employed.
# The technique of timed i.v. PTZ (pentylenetetrazole) infusion test (ivPTZ) is a simple, reproducible and fast method for assessment of onset, peak, duration and potency of various anticonvulsants and proconvulsants in animals. This test provides an extremely sensitive parametric method for assessing seizure threshold in individual animals and a quantifiable endpoint can be obtained with a minimal number of animals. Different seizure types can be chosen as endpoint in this test. Usually, the first seizure occurring during the PTZ infusion is a myoclonic twitch, followed by clonic and, later, tonic seizures. […]
# During the infusion, mice are observed for the onset of different types of seizures. The time latencies from the start of infusion to the appearance of the first clonus (characterized by rapid involuntary rhythmic contraction and relaxation of limbs), lasting longer than 5 seconds, are recorded. […]
# The infusion of PTZ will be terminated at 2 min, in case of non-appearance of clonic seizures. For such animals, the dose of PTZ in mg/kg infused during the course of 2 min is calculated as the threshold dose.
# The threshold doses of PTZ producing clonic seizures are calculated (in mg/kg) using the following formula: […]
# physchem = conditions: for solubility: oil or lipid
# Method: After combining of pre-weighed amounts of components they were gently triturated at room temperature (20-22° C.) using a stainless steel spatula until liquid phase is formed.
# [2] = Water solubility of Lorazepam in saline; conditions: saline or isotonic
Compound,Onset of action [1],Time to maximal protection (PTZ induced seizures),"solubility (physchem; Lorazepam solubility in MCT with 5% Menthol, MCT oil + 5% Menthol by weight)","solubility (physchem; Lorazepam solubility in MCT with 8% Menthol, MCT oil + 8% Menthol)","solubility (physchem; Solubility in capric/caprylic triglycerides (MCT oil), pure MCT oil, RT)","solubility (physchem; Solubility of Lorazepam in peppermint oil, peppermint oil containing about 45% of menthol)","Increase of Lorazepam solubility, MCT with 5% Menthol (physchem; versus pure MCT oil)","Increase of Lorazepam solubility, MCT with 8% Menthol (physchem; versus pure MCT oil)",solubility [2]
Cc1ncc2n1-c1ccc(Cl)cc1C(c1ccccc1F)=NC2 [Midazolam],approximately 10 minutes,–,–,–,–,–,–,–,–
O=C1Nc2ccc(Cl)cc2C(c2ccccc2Cl)=NC1O (stereo not drawn) [Lorazepam],–,approximately 5 minutes,5500 µg/mL,6800 µg/mL,4300 µg/mL,38900 µg/mL,28%,~60%,~27 µg/mL
